Consider 15 molecules from article PMC7466059, “Synthesis and Ex Vivo Trans-Corneal Permeation of Penetratin Analogues as Ophthalmic Carriers: Preliminary Results” (Pharmaceutics, 2020).

For series [1] the following is noted: FAM alone, trans-corneal; cited from earlier work. From the text:
Finally, also the propensity of CPPs to enter corneal epithelium and endothelium cells should be considered.

A short description of series [2]: Ex vivo trans-corneal permeation, Franz-type diffusion cells. The series is classed as in vitro ADME, pig. The conditions noted are these: ex vivo porcine cornea, area 0.2 cm^2, 37 °C, 6 h, fluorescence 485/535 nm, mean ± sd. The method, then:
(§1) Permeation experiments across freshly porcine cornea were performed following a method previously reported. In detail, transparent porcine corneas were isolated from fresh pig eyes (breed: Large White and Landrace; weight: 145–190 kg; age: 10–11 months; sex: female and male; Macello Annoni SpA, Busseto, Italy) and supported by glass Franz-type diffusion cells, having a permeation area of 0.2 cm^2. The epithelial side was in contact with the donor, i.e., 200 µL of aqueous solution containing a peptide: each concentration and solvent are indicated in Table 2. Donor concentrations were selected based on different solubility and analytical sensitivity (see paragraph 2.4 and Table S2). For some peptides, the solubilization was improved by dissolving the raw material using small amount of DMSO (final concentration less than 5% v/v), and then PBS or PBS+0.1% BSA were alternately added.
To fill the receptor compartment, around 4 mL of degassed PBS or PBS+0.1% BSA was used (see Table 2), being kept at 37 °C and maintained under magnetic stirring to avoid any boundary layer effect. The presence of 0.1% BSA aids in preventing peptides aggregation. Permeation experiments lasted 6 h, and for quantification purposes, 200 µL of the receiving solution were collected every hour and reintegrated with fresh medium. Each condition was replicated between 3 and 4 times, using cornea isolated from different animals.
Permeation samples were analysed without preliminary separation by fluorescence, using a Spark 10M microplate reader (Tecan Trading AG, Switzerland); excitation and emission wavelengths were 485 nm and 535 nm, respectively. Standard solutions were prepared in PBS pH 7.4 or in PBS containing BSA 0.1%. RSD% (relative standard deviation %) was lower than 10%, while ER% (relative error %) resulted lower than 15%.
The amount of CPP permeated across the cornea (nmol/cm^2) is plotted against time (hour): the slope of the regression line at steady state represents the trans-corneal flux J (nmol/cm^2 h). The apparent permeability coefficient Papp (cm/s) is then calculated as Equation (1): Papp = J/c(1) being c (µM) the concentration of the donor solution. Papp allows for a direct comparison among permeants studied using different donor concentrations.

Series [3] can be described thus: Aqueous solubility / precipitation of donor solutions (observation). The conditions noted are these: for solubilization of donor solution: 250 µM, PBS pH 7.4; for solubility in aqueous medium: fluorescein (FL) as cargo, not used in ex vivo permeation experiments. The series is classed as physicochemical. The method, then:
as §1
We have also analysed if the sequence reciprocity (GG vs. R) plays a role in the diffusivity of the peptide across the cornea and we found no difference between most of the paired sequences, namely PNT-GG 2 vs. PNT-R 4, PNT-GG 3 vs. PNT-R 3, PNT-GG 4 vs. PNT-R 2, PNT-GG 5 vs. PNT-R 1 (Figure 3b). This confirms that the sequence is only one of the factors affecting the translocation: in fact, even CPP concentration, type of cells, and cargo can strongly influence CPP final behavior/activity. […] Differently, the presence of FAM, a more hydrophilic fluorescent probe, allowed for aqueous solutions ranging in concentration from 25 to 250 µM (Table 2).

The mark [4] stands for this setting: donor 100 µM, 200 µL, donor and receiving solutions PBS+BSA 0.1% pH 7.4, n = 3.
[5] abbreviates: donor 25 µM, 200 µL, donor and receiving solutions PBS pH 7.4, n = 4.
[6] abbreviates: donor 250 µM, 200 µL, donor and receiving solutions PBS pH 7.4, n = 3-4.

Where two headings read alike, the source gives them in different places. Marks after values point to notes of the source that are not given here. Peptide text beside a SMILES is read from it. * marks the point of attachment. 5FAM = O=C1OC2(c3ccc(O)cc3Oc3cc(O)ccc32)c2ccc(C(=O)*)cc21

5(6)-Carboxyfluorescein [FAM]: in series [1], the “Papp (apparent permeability coefficient)” value was 0.29 ± 0.08 × 10^−6 cm/s.

Turning to `CSCC[C@H](NC(=O)[C@H](CCCNC(=N)N)NC(=O)[C@H](CCCNC(=N)N)NC(=O)[C@H](CC(N)=O)NC(=O)CNC(=O)CNC(=O)c1ccc2c(c1)C(=O)OC21c2ccc(O)cc2Oc2cc(O)ccc21)C(=O)N[C@@H](CCCCN)C(=O)N[C@@H](Cc1c[nH]c2ccccc12)C(=O)N[C@@H](CCCCN)C(=O)N[C@@H](CCCCN)C(N)=O` [PNT-GG 1] (5FAM-GGNRRMKWKK-NH2), the “Papp (apparent permeability coefficient)” value in series [2] (epithelial side to donor, donor 100 µM, 200 µL, donor and receiving solutions PBS pH 7.4, hourly sampling, n = 3-4) was 1.33 ± 0.11 × 10^−6 cm/s.

As to `CSCC[C@H](NC(=O)[C@H](CCCNC(=N)N)NC(=O)[C@H](CCCNC(=N)N)NC(=O)[C@H](CC(N)=O)NC(=O)[C@H](CCC(N)=O)NC(=O)[C@H](Cc1ccccc1)NC(=O)CNC(=O)CNC(=O)c1ccc2c(c1)C(=O)OC21c2ccc(O)cc2Oc2cc(O)ccc21)C(=O)N[C@@H](CCCCN)C(=O)N[C@@H](Cc1c[nH]c2ccccc12)C(N)=O` [PNT-GG 2] (5FAM-GGFQNRRMKW-NH2), in series [2] (setting [4]), the “Papp (apparent permeability coefficient)” value is given as 0.55 ± 0.57 × 10^−6 cm/s.

For the molecule `CC[C@H](C)[C@H](NC(=O)CNC(=O)CNC(=O)c1ccc2c(c1)C(=O)OC21c2ccc(O)cc2Oc2cc(O)ccc21)C(=O)N[C@@H](Cc1c[nH]c2ccccc12)C(=O)N[C@@H](Cc1ccccc1)C(=O)N[C@@H](CCC(N)=O)C(=O)N[C@@H](CC(N)=O)C(=O)N[C@@H](CCCNC(=N)N)C(=O)N[C@@H](CCCNC(=N)N)C(=O)N[C@@H](CCSC)C(N)=O` [PNT-GG 3] (5FAM-GGIWFQNRRM-NH2), in series [2] (setting [4]), the “Papp (apparent permeability coefficient)” value is listed as 0.44 ± 0.50 × 10^−6 cm/s.

For `CC[C@H](C)[C@H](NC(=O)CNC(=O)CNC(=O)c1ccc2c(c1)C(=O)OC21c2ccc(O)cc2Oc2cc(O)ccc21)C(=O)N[C@@H](CCCCN)C(=O)N[C@H](C(=O)N[C@@H](Cc1c[nH]c2ccccc12)C(=O)N[C@@H](Cc1ccccc1)C(=O)N[C@@H](CCC(N)=O)C(=O)N[C@@H](CC(N)=O)C(=O)N[C@@H](CCCNC(=N)N)C(N)=O)[C@@H](C)CC` [PNT-GG 4] (5FAM-GGIKIWFQNR-NH2), the “Papp (apparent permeability coefficient)” value in series [2] (setting [4]) is 0.34 ± 0.14 × 10^−6 cm/s.

Turning to `CC[C@H](C)[C@H](NC(=O)[C@H](CCCCN)NC(=O)[C@@H](NC(=O)[C@H](CCC(N)=O)NC(=O)[C@H](CCCNC(=N)N)NC(=O)CNC(=O)CNC(=O)c1ccc2c(c1)C(=O)OC21c2ccc(O)cc2Oc2cc(O)ccc21)[C@@H](C)CC)C(=O)N[C@@H](Cc1c[nH]c2ccccc12)C(=O)N[C@@H](Cc1ccccc1)C(=O)N[C@@H](CCC(N)=O)C(N)=O` [PNT-GG 5] (5FAM-GGRQIKIWFQ-NH2), the “Papp (apparent permeability coefficient)” value in series [2] (donor 100 µM in PBS pH 7.4, receiving solution PBS+BSA 0.1% pH 7.4, n = 3) is on record as 0.50 ± 0.70 ^d × 10^−6 cm/s; in series [2] (setting [4]), 0.24 ± 0.40 ^d × 10^−6 cm/s.

With `CC[C@H](C)[C@H](NC(=O)[C@H](CCCCN)NC(=O)[C@@H](NC(=O)[C@H](CCC(N)=O)NC(=O)[C@H](CCCNC(=N)N)NC(=O)CNC(=O)CNC(=O)c1ccc2c(c1)C(=O)OC21c2ccc(O)cc2Oc2cc(O)ccc21)[C@@H](C)CC)C(=O)N[C@@H](Cc1c[nH]c2ccccc12)C(=O)N[C@@H](Cc1ccccc1)C(=O)N[C@@H](CCC(N)=O)C(=O)N[C@@H](CC(N)=O)C(=O)N[C@@H](CCCNC(=N)N)C(=O)N[C@@H](CCCNC(=N)N)C(=O)N[C@@H](CCSC)C(=O)N[C@@H](CCCCN)C(=O)N[C@@H](Cc1c[nH]c2ccccc12)C(=O)N[C@@H](CCCCN)C(=O)N[C@@H](CCCCN)C(N)=O` [PNT-GG], the “solubilization of donor solution” value in series [3] is given as “complete solubilization”. For the same molecule, the “Papp (apparent permeability coefficient)” value in series [2] (setting [5]) is 4.41 ± 2.93 × 10^−6 cm/s.

With `CC[C@H](C)[C@H](NC(=O)[C@H](CCCCN)NC(=O)[C@@H](NC(=O)[C@H](Cc1c[nH]c2ccccc12)NC(=O)[C@H](Cc1ccccc1)NC(=O)[C@H](CCC(N)=O)NC(=O)CNC(=O)CNC(=O)c1ccc2c(c1)C(=O)OC21c2ccc(O)cc2Oc2cc(O)ccc21)[C@@H](C)CC)C(=O)N[C@@H](CCC(N)=O)C(=O)N[C@@H](CCCNC(=N)N)C(N)=O` [PNT-R 1] (5FAM-GGQFWIKIQR-NH2), the “Papp (apparent permeability coefficient)” value in series [2] (setting [6]) is listed as 0.93 ± 0.53 × 10^−6 cm/s.

In the case of `CC[C@H](C)[C@H](NC(=O)[C@H](CCCCN)NC(=O)[C@@H](NC(=O)[C@H](Cc1c[nH]c2ccccc12)NC(=O)[C@H](Cc1ccccc1)NC(=O)[C@H](CCC(N)=O)NC(=O)[C@H](CC(N)=O)NC(=O)[C@H](CCCNC(=N)N)NC(=O)CNC(=O)CNC(=O)c1ccc2c(c1)C(=O)OC21c2ccc(O)cc2Oc2cc(O)ccc21)[C@@H](C)CC)C(N)=O` [PNT-R 2] (5FAM-GGRNQFWIKI-NH2), the “Papp (apparent permeability coefficient)” value in series [2] (setting [6]) is 0.23 ± 0.16 × 10^−6 cm/s.

Turning to `CC[C@H](C)[C@H](NC(=O)[C@H](Cc1c[nH]c2ccccc12)NC(=O)[C@H](Cc1ccccc1)NC(=O)[C@H](CCC(N)=O)NC(=O)[C@H](CC(N)=O)NC(=O)[C@H](CCCNC(=N)N)NC(=O)[C@H](CCCNC(=N)N)NC(=O)[C@H](CCSC)NC(=O)CNC(=O)CNC(=O)c1ccc2c(c1)C(=O)OC21c2ccc(O)cc2Oc2cc(O)ccc21)C(N)=O` [PNT-R 3] (5FAM-GGMRRNQFWI-NH2), the “Papp (apparent permeability coefficient)” value in series [2] (setting [6]) is 0.002 ± 0.004 × 10^−6 cm/s.

As to `CSCC[C@H](NC(=O)[C@H](CCCCN)NC(=O)[C@H](Cc1c[nH]c2ccccc12)NC(=O)CNC(=O)CNC(=O)c1ccc2c(c1)C(=O)OC21c2ccc(O)cc2Oc2cc(O)ccc21)C(=O)N[C@@H](CCCNC(=N)N)C(=O)N[C@@H](CCCNC(=N)N)C(=O)N[C@@H](CC(N)=O)C(=O)N[C@@H](CCC(N)=O)C(=O)N[C@@H](Cc1ccccc1)C(N)=O` [PNT-R 4] (5FAM-GGWKMRRNQF-NH2), the “Papp (apparent permeability coefficient)” value in series [2] (setting [6]) is listed as 0.13 ± 0.07 × 10^−6 cm/s.

For `CSCC[C@H](NC(=O)[C@H](CCCCN)NC(=O)[C@H](Cc1c[nH]c2ccccc12)NC(=O)[C@H](CCCCN)NC(=O)[C@H](CCCCN)NC(=O)CNC(=O)CNC(=O)c1ccc2c(c1)C(=O)OC21c2ccc(O)cc2Oc2cc(O)ccc21)C(=O)N[C@@H](CCCNC(=N)N)C(=O)N[C@@H](CCCNC(=N)N)C(=O)N[C@@H](CC(N)=O)C(N)=O` [PNT-R 5] (5FAM-GGKKWKMRRN-NH2), in series [2] (setting [6]), the “Papp (apparent permeability coefficient)” value is recorded as 0.05 ± 0.01 × 10^−6 cm/s.

On to `CC[C@H](C)[C@H](NC(=O)[C@H](CCCCN)NC(=O)[C@@H](NC(=O)[C@H](Cc1c[nH]c2ccccc12)NC(=O)[C@H](Cc1ccccc1)NC(=O)[C@H](CCC(N)=O)NC(=O)[C@H](CC(N)=O)NC(=O)[C@H](CCCNC(=N)N)NC(=O)[C@H](CCCNC(=N)N)NC(=O)[C@H](CCSC)NC(=O)[C@H](CCCCN)NC(=O)[C@H](Cc1c[nH]c2ccccc12)NC(=O)[C@H](CCCCN)NC(=O)[C@H](CCCCN)NC(=O)CNC(=O)CNC(=O)c1ccc2c(c1)C(=O)OC21c2ccc(O)cc2Oc2cc(O)ccc21)[C@@H](C)CC)C(=O)N[C@@H](CCC(N)=O)C(=O)N[C@@H](CCCNC(=N)N)C(N)=O` [PNT-R] (5FAM-GGKKWKMRRNQFWIKIQR-NH2), for which, in series [3], the “solubilization of donor solution” value was “complete solubilization”. Moreover, the “Papp (apparent permeability coefficient)” value in series [2] (setting [5]) was 7.08 ± 6.66 × 10^−6 cm/s.

“FL-GG-KKWKMRRNQFWIKIQR [PNT-R-FL, fluorescein-GG-labelled reversed penetratin, C-terminal amide]”: the “solubility in aqueous medium” value in series [3] is “poorly soluble”.

As to “FL-GG-WKMRRNQF [PNT-R-4-FL, fluorescein-GG-labelled analogue of PNT-R 4, C-terminal amide]”, the “solubility in aqueous medium” value in series [3] is “poorly soluble”.
